Laboratory results taken from the OligoGym collection.
HELM strings list units from the 5' end as sugar, base in round brackets, then linkage (d deoxyribose, r ribose, m 2'-O-methyl, p phosphodiester). Strings are as the collection lists them; they lack the last nucleoside at the 3' end of the tested compound. [moe] = 2'-O-(2-methoxyethyl) (MOE); [sp] = phosphorothioate linkage; [m5C] = 5-methylcytosine

Target: APP
Assay: mouse, dose not given
Details: ASO

| Substance | 3 h FOB score |
| --- | --- |
| RNA1{[moe](G)[sp].[moe](T)p.[moe](A)p.[moe]([m5C])p.[moe](A)[sp].d(T)[sp].d(A)[sp].d(T)[sp].d(T)[sp].d([m5C])[sp].d(A)[sp].d(T)[sp].d(T)[sp].d([m5C])[sp].d(A)[sp].[moe](A)p.[moe](T)p.[moe]([m5C])[sp].[moe](T)}$$$$ (last 3' nucleoside missing) | 0 score 0-7 |
| RNA1{[moe](G)[sp].[moe](G)p.[moe]([m5C])p.[moe](A)p.[moe](T)[sp].d([m5C])[sp].d(A)[sp].d([m5C])[sp].d(T)[sp].d(T)[sp].d(A)[sp].d([m5C])[sp].d(A)[sp].d(A)[sp].d(A)[sp].[moe]([m5C])p.[moe](T)p.[moe]([m5C])[sp].[moe](A)}$$$$ (last 3' nucleoside missing) | 0.375 score 0-7 |
| RNA1{[moe](A)[sp].[moe](G)p.[moe](T)p.[moe](A)p.[moe]([m5C])[sp].d(A)[sp].d(T)[sp].d(A)[sp].d(T)[sp].d(T)[sp].d([m5C])[sp].d(A)[sp].d(T)[sp].d(T)[sp].d([m5C])[sp].[moe](A)p.[moe](A)p.[moe](T)[sp].[moe]([m5C])}$$$$ (last 3' nucleoside missing) | 0 score 0-7 |
| RNA1{[moe](G)[sp].[moe](A)p.[moe](T)p.[moe]([m5C])p.[moe](T)[sp].d(G)[sp].d(A)[sp].d(A)[sp].d(T)[sp].d([m5C])[sp].d([m5C])[sp].d([m5C])[sp].d(A)[sp].d([m5C])[sp].d(T)[sp].[moe](T)p.[moe]([m5C])p.[moe]([m5C])[sp].[moe]([m5C])}$$$$ (last 3' nucleoside missing) | 0 score 0-7 |
| RNA1{[moe](T)[sp].[moe](A)p.[moe](G)p.[moe](G)p.[moe](A)[sp].d(A)[sp].d([m5C])[sp].d(T)[sp].d([m5C])[sp].d(G)[sp].d(A)[sp].d(A)[sp].d([m5C])[sp].d([m5C])[sp].d(A)[sp].[moe]([m5C])p.[moe]([m5C])p.[moe](T)[sp].[moe]([m5C])}$$$$ (last 3' nucleoside missing) | 0.5 score 0-7 |
| RNA1{[moe](G)[sp].[moe]([m5C])p.[moe](A)p.[moe]([m5C])p.[moe](T)[sp].d(A)[sp].d([m5C])[sp].d(A)[sp].d(T)[sp].d(T)[sp].d(G)[sp].d([m5C])[sp].d(T)[sp].d(T)[sp].d([m5C])[sp].[moe](A)p.[moe](T)p.[moe](A)[sp].[moe]([m5C])}$$$$ (last 3' nucleoside missing) | 1 score 0-7 |
| RNA1{[moe](G)[sp].[moe](T)p.[moe](T)p.[moe](T)p.[moe]([m5C])[sp].d(G)[sp].d([m5C])[sp].d(A)[sp].d(A)[sp].d(A)[sp].d([m5C])[sp].d(A)[sp].d(T)[sp].d([m5C])[sp].d([m5C])[sp].[moe](A)p.[moe](T)p.[moe]([m5C])[sp].[moe]([m5C])}$$$$ (last 3' nucleoside missing) | 0.5 score 0-7 |
| RNA1{[moe](G)[sp].[moe]([m5C])p.[moe](A)p.[moe]([m5C])p.[moe](A)[sp].d(A)[sp].d(T)[sp].d(T)[sp].d(A)[sp].d(T)[sp].d(T)[sp].d(G)[sp].d(T)[sp].d(T)[sp].d(T)[sp].[moe]([m5C])p.[moe]([m5C])p.[moe](T)[sp].[moe]([m5C])}$$$$ (last 3' nucleoside missing) | 1 score 0-7 |
| RNA1{[moe]([m5C])[sp].[moe](G)p.[moe](A)p.[moe](G)p.[moe](A)[sp].d(T)[sp].d(A)[sp].d([m5C])[sp].d(T)[sp].d(T)[sp].d(G)[sp].d(T)[sp].d([m5C])[sp].d(A)[sp].d(A)[sp].[moe]([m5C])p.[moe](G)p.[moe](G)[sp].[moe]([m5C])}$$$$ (last 3' nucleoside missing) | 2.33 score 0-7 |
| RNA1{[moe](T)[sp].[moe]([m5C])p.[moe]([m5C])p.[moe](A)p.[moe](A)[sp].d(A)[sp].d(G)[sp].d(A)[sp].d(T)[sp].d(T)[sp].d([m5C])[sp].d([m5C])[sp].d(A)[sp].d([m5C])[sp].d(T)[sp].[moe](T)p.[moe](T)p.[moe]([m5C])[sp].[moe](T)}$$$$ (last 3' nucleoside missing) | 0.5 score 0-7 |
| RNA1{[moe](A)[sp].[moe](A)p.[moe](G)p.[moe](G)p.[moe]([m5C])[sp].d(A)[sp].d(T)[sp].d(G)[sp].d([m5C])[sp].d(A)[sp].d(T)[sp].d(T)[sp].d(T)[sp].d(T)[sp].d(T)[sp].[moe](A)p.[moe](G)p.[moe](G)[sp].[moe](G)}$$$$ (last 3' nucleoside missing) | 1.67 score 0-7 |
| RNA1{[moe](G)[sp].[moe](T)p.[moe](T)p.[moe]([m5C])p.[moe](A)p.[moe]([m5C])[sp].d(A)[sp].d(G)[sp].d(T)[sp].d(T)[sp].d(T)[sp].d(A)[sp].d([m5C])[sp].d([m5C])[sp].d([m5C])[sp].d([m5C])[sp].[moe](A)p.[moe](A)[sp].[moe](G)}$$$$ (last 3' nucleoside missing) | 0 score 0-7 |
| RNA1{[moe](T)[sp].[moe]([m5C])p.[moe](T)p.[moe]([m5C])p.[moe](T)[sp].d([m5C])[sp].d(A)[sp].d(T)[sp].d(A)[sp].d(G)[sp].d(T)[sp].d([m5C])[sp].d(T)[sp].d(T)[sp].d(A)[sp].[moe](A)p.[moe](T)p.[moe](T)[sp].[moe]([m5C])}$$$$ (last 3' nucleoside missing) | 0 score 0-7 |
| RNA1{[moe]([m5C])[sp].[moe](T)p.[moe](G)p.[moe](G)p.[moe](G)[sp].d(T)[sp].d(A)[sp].d([m5C])[sp].d(A)[sp].d(T)[sp].d(A)[sp].d(A)[sp].d(T)[sp].d(A)[sp].d([m5C])[sp].[moe](T)p.[moe](A)p.[moe](G)[sp].[moe](G)}$$$$ (last 3' nucleoside missing) | 0 score 0-7 |
| RNA1{[moe](G)[sp].[moe]([m5C])p.[moe]([m5C])p.[moe](A)p.[moe](A)[sp].d([m5C])[sp].d(T)[sp].d(T)[sp].d(A)[sp].d(T)[sp].d(T)[sp].d([m5C])[sp].d(T)[sp].d([m5C])[sp].d(A)[sp].[moe](A)p.[moe](G)p.[moe](G)[sp].[moe](G)}$$$$ (last 3' nucleoside missing) | 1 score 0-7 |
| RNA1{[moe](G)[sp].[moe]([m5C])p.[moe](A)p.[moe](G)p.[moe](A)[sp].d(A)[sp].d(T)[sp].d([m5C])[sp].d([m5C])[sp].d(A)[sp].d([m5C])[sp].d(A)[sp].d(T)[sp].d(T)[sp].d(G)[sp].[moe](T)p.[moe]([m5C])p.[moe](A)[sp].[moe]([m5C])}$$$$ (last 3' nucleoside missing) | 1.5 score 0-7 |
| RNA1{[moe](A)[sp].[moe](G)p.[moe](G)p.[moe](T)p.[moe]([m5C])[sp].d(T)[sp].d([m5C])[sp].d(T)[sp].d(A)[sp].d(T)[sp].d(A)[sp].d(T)[sp].d(T)[sp].d(T)[sp].d(T)[sp].[moe](G)p.[moe](G)p.[moe](T)[sp].[moe]([m5C])}$$$$ (last 3' nucleoside missing) | 0.33 score 0-7 |
| RNA1{[moe]([m5C])[sp].[moe]([m5C])p.[moe](T)p.[moe](T)p.[moe]([m5C])[sp].d(T)[sp].d(T)[sp].d(A)[sp].d([m5C])[sp].d(A)[sp].d(A)[sp].d(T)[sp].d(T)[sp].d(A)[sp].d(T)[sp].[moe](G)p.[moe]([m5C])p.[moe](T)[sp].[moe]([m5C])}$$$$ (last 3' nucleoside missing) | 1 score 0-7 |
| RNA1{[moe](A)[sp].[moe](G)p.[moe](G)p.[moe](A)p.[moe]([m5C])[sp].d(A)[sp].d(T)[sp].d(T)[sp].d([m5C])[sp].d(A)[sp].d(T)[sp].d(T)[sp].d(T)[sp].d(T)[sp].d(T)[sp].[moe](G)p.[moe](A)p.[moe]([m5C])[sp].[moe]([m5C])}$$$$ (last 3' nucleoside missing) | 1 score 0-7 |
| RNA1{[moe](T)[sp].[moe]([m5C])p.[moe]([m5C])p.[moe](A)p.[moe](A)[sp].d(T)[sp].d(T)[sp].d(T)[sp].d(T)[sp].d(A)[sp].d(A)[sp].d([m5C])[sp].d(T)[sp].d(T)[sp].d(G)[sp].[moe]([m5C])p.[moe](A)p.[moe]([m5C])[sp].[moe]([m5C])}$$$$ (last 3' nucleoside missing) | 0.5 score 0-7 |
| RNA1{[moe]([m5C])[sp].[moe](T)p.[moe]([m5C])p.[moe](T)p.[moe](T)[sp].d(G)[sp].d(T)[sp].d(T)[sp].d(A)[sp].d(A)[sp].d(A)[sp].d(T)[sp].d([m5C])[sp].d(A)[sp].d(T)[sp].[moe](G)p.[moe](G)p.[moe]([m5C])[sp].[moe](A)}$$$$ (last 3' nucleoside missing) | 0 score 0-7 |
| RNA1{[moe](G)[sp].[moe]([m5C])p.[moe](A)p.[moe](G)p.[moe]([m5C])[sp].d(A)[sp].d(G)[sp].d(G)[sp].d(T)[sp].d(T)[sp].d(T)[sp].d([m5C])[sp].d([m5C])[sp].d(A)[sp].d(T)[sp].[moe](A)p.[moe](A)p.[moe](A)[sp].[moe]([m5C])}$$$$ (last 3' nucleoside missing) | 0 score 0-7 |
| RNA1{[moe](G)[sp].[moe]([m5C])p.[moe](A)p.[moe](T)p.[moe]([m5C])[sp].d(A)[sp].d([m5C])[sp].d(A)[sp].d(A)[sp].d(T)[sp].d(T)[sp].d([m5C])[sp].d(T)[sp].d(T)[sp].d([m5C])[sp].[moe](A)p.[moe](T)p.[moe](T)[sp].[moe](G)}$$$$ (last 3' nucleoside missing) | 0 score 0-7 |
| RNA1{[moe](G)[sp].[moe]([m5C])p.[moe]([m5C])p.[moe](T)p.[moe](T)[sp].d(A)[sp].d(T)[sp].d(T)[sp].d(A)[sp].d(T)[sp].d([m5C])[sp].d(T)[sp].d([m5C])[sp].d(A)[sp].d(A)[sp].[moe](A)p.[moe]([m5C])p.[moe](T)[sp].[moe]([m5C])}$$$$ (last 3' nucleoside missing) | 0 score 0-7 |
| RNA1{[moe](T)[sp].[moe](A)p.[moe]([m5C])p.[moe](A)p.[moe](T)[sp].d([m5C])[sp].d(A)[sp].d(T)[sp].d(T)[sp].d(T)[sp].d(T)[sp].d([m5C])[sp].d(T)[sp].d(T)[sp].d(G)[sp].[moe]([m5C])p.[moe](A)p.[moe](G)[sp].[moe](T)}$$$$ (last 3' nucleoside missing) | 2.75 score 0-7 |
| RNA1{[moe](T)[sp].[moe]([m5C])p.[moe](A)p.[moe](T)p.[moe](T)[sp].d([m5C])[sp].d(T)[sp].d([m5C])[sp].d(A)[sp].d(T)[sp].d([m5C])[sp].d([m5C])[sp].d([m5C])[sp].d([m5C])[sp].d(A)[sp].[moe](G)p.[moe](G)p.[moe](T)[sp].[moe](G)}$$$$ (last 3' nucleoside missing) | 0 score 0-7 |
